This is an account of results in PubChem BioAssay (NCI).

Test systems include A549 NSCLC; NCI-H522 lung; MDA-MB-231 breast; SK-MEL-5 melanoma; NCI-H23 lung; MCF7 breast; NCI-H460 lung; HOP-92 NSCLC; IGROV1 ovarian; HCC-2998 colon.
Experiment in all cases: inhibition of tumour cell growth, NCI panel, 48 h

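Growth conditions: 96-well plates. Treatment: test compound, 48 hours, 5 concentrations. Analysis: linear interpolation between bracketing concentrations; unreached endpoints set to highest concentration. Abbreviation: GI50, concentration required for 50% inhibition of growth. TGI denotes the concentration required for complete inhibition of growth.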

Consider `COc1cc(CNc2nc3cc(N)cc(N)c3nc2-c2ccccc2)cc(OC)c1OC`, for which the GI50 in the assay on A549 NSCLC is 4.28 µM; in the assay with NCI-H522 lung it was greater than 50 µM; in the assay on MDA-MB-231 breast, 7.3 µM; in the assay on SK-MEL-5 melanoma, 0.721 µM; in the assay with NCI-H23 lung, 8.64 µM; with MCF7 breast it was 1.55 µM. Further, the GI50 is 1.53 µM with NCI-H460 lung, 1.21 µM in the assay with HOP-92 NSCLC and 9.11 µM in the assay on IGROV1 ovarian. Besides, the TGI with A549 NSCLC was 33.1 µM; with NCI-H522 lung it was greater than 50 µM; with MDA-MB-231 breast it was 15.2 µM; in the assay on SK-MEL-5 melanoma, 7.79 µM; in the assay with NCI-H23 lung, 17 µM; with MCF7 breast, greater than 50 µM. In addition, the values for the TGI with NCI-H460 lung, in the assay on HOP-92 NSCLC and in the assay on IGROV1 ovarian were greater than 50 µM, 3.12 µM and greater than 50 µM, respectively.

Turning to `CN(C)c1ccc(/C=C/c2ccnc3ccc4ccccc4c23)cc1`, the TGI with A549 NSCLC, in the assay with NCI-H522 lung, with MDA-MB-231 breast, with SK-MEL-5 melanoma, with NCI-H23 lung and in the assay with MCF7 breast was greater than 100 µM each time. In addition, the values for the TGI in the assay with NCI-H460 lung, in the assay on HOP-92 NSCLC and in the assay with IGROV1 ovarian were greater than 100 µM, greater than 100 µM and 45.8 µM, respectively.

As for `Nc1c(S(=O)(=O)O)cc(Nc2cccc(S(N)(=O)=O)c2)c2c1C(=O)c1ccccc1C2=O`, the TGI in the assay with A549 NSCLC, with NCI-H522 lung, in the assay with MDA-MB-231 breast, in the assay on SK-MEL-5 melanoma, with NCI-H23 lung and in the assay with MCF7 breast was greater than 100 µM throughout. Also, the TGI with NCI-H460 lung, in the assay with HOP-92 NSCLC and in the assay on IGROV1 ovarian was greater than 100 µM throughout.

`c1ccc(CCCNc2nnnc3ccccc23)cc1`: the TGI in the assay on A549 NSCLC, with NCI-H522 lung, in the assay with MDA-MB-231 breast, in the assay with SK-MEL-5 melanoma, in the assay on NCI-H23 lung and in the assay on MCF7 breast was greater than 100 µM throughout. Also, the TGI in the assay with NCI-H460 lung, in the assay with HOP-92 NSCLC and in the assay with IGROV1 ovarian was greater than 100 µM throughout.

With `Clc1nc(Cl)c2ncn(C/C=C/Cn3cnc4c(Cl)nc(Cl)nc43)c2n1`, the GI50 in the assay with A549 NSCLC was 13.2 µM; with NCI-H522 lung, 6.75 µM; in the assay with MDA-MB-231 breast it was 21.2 µM; in the assay with SK-MEL-5 melanoma, 16.5 µM; with NCI-H23 lung, 18.7 µM; in the assay on MCF7 breast, 6.69 µM. The GI50 with NCI-H460 lung is 20 µM; in the assay with HCC-2998 colon, 16 µM; in the assay on IGROV1 ovarian it was 11.8 µM. Also, the TGI in the assay on A549 NSCLC was found to be 32 µM; with NCI-H522 lung, 22.7 µM; in the assay with MDA-MB-231 breast it was 38 µM; with SK-MEL-5 melanoma it was 31.1 µM; with NCI-H23 lung it was 38 µM; in the assay on MCF7 breast, 21.6 µM. The TGI is 40.7 µM in the assay on NCI-H460 lung, 31.4 µM in the assay with HCC-2998 colon and 25.7 µM with IGROV1 ovarian.

`COc1cc(-c2cc(-c3nc4cc(Cl)c(Cl)cc4[nH]3)[nH]n2)cc(OC)c1OC`: the GI50 is 2.87 µM in the assay on A549 NSCLC; 2.02 µM with NCI-H522 lung; 4.14 µM in the assay on MDA-MB-231 breast; 1.56 µM in the assay with SK-MEL-5 melanoma; 3.4 µM in the assay with NCI-H23 lung; 2.79 µM in the assay with MCF7 breast. Moreover, the GI50 in the assay with NCI-H460 lung was 3.33 µM; in the assay on HCC-2998 colon it was 4.47 µM; in the assay on IGROV1 ovarian, 3.86 µM. The TGI was found to be 10.5 µM in the assay with A549 NSCLC; 5.66 µM with NCI-H522 lung; 20.1 µM in the assay on MDA-MB-231 breast; 3.24 µM with SK-MEL-5 melanoma; 13 µM in the assay on NCI-H23 lung; 11.5 µM in the assay with MCF7 breast. In addition, the TGI was determined as 12.9 µM in the assay with NCI-H460 lung, 15 µM in the assay on HCC-2998 colon and 18.2 µM in the assay on IGROV1 ovarian.

As to `COc1cc([N+](=O)[O-])c(S(=O)(=O)O)cc1N`, the TGI with A549 NSCLC, in the assay on NCI-H522 lung, in the assay with MDA-MB-231 breast, in the assay on SK-MEL-5 melanoma, in the assay with NCI-H23 lung and in the assay with MCF7 breast was greater than 100 µM throughout. The TGI with NCI-H460 lung and in the assay on IGROV1 ovarian was greater than 100 µM each time.

With `COc1nc2c(cc1S(=O)(=O)c1ccccc1)CCc1c-2cnn1Cc1ccccc1`, the GI50 in the assay on A549 NSCLC is greater than 100 µM; with MDA-MB-231 breast, greater than 100 µM; with SK-MEL-5 melanoma it was 2.89 µM; in the assay with NCI-H23 lung, 8.45 µM; in the assay with MCF7 breast, 3.48 µM; in the assay on NCI-H460 lung it was 7.06 µM. Moreover, the GI50 in the assay with HCC-2998 colon was 25.3 µM; in the assay with IGROV1 ovarian it was 31.5 µM. Moreover, the TGI in the assay with A549 NSCLC is greater than 100 µM; with MDA-MB-231 breast, greater than 100 µM; in the assay on SK-MEL-5 melanoma, greater than 100 µM; in the assay on NCI-H23 lung, greater than 100 µM; in the assay on MCF7 breast, 38.9 µM; in the assay on NCI-H460 lung, greater than 100 µM. Besides, the TGI in the assay with HCC-2998 colon and in the assay with IGROV1 ovarian was greater than 100 µM each time.

Consider `O=c1c2[nH]c3ccccc3c2nc2n1CCS2`, for which the GI50 in the assay with A549 NSCLC, in the assay with NCI-H522 lung, in the assay on MDA-MB-231 breast, in the assay on SK-MEL-5 melanoma, in the assay on NCI-H23 lung and in the assay on MCF7 breast was greater than 100 µM throughout. Further, the values for the GI50 with NCI-H460 lung, in the assay on HCC-2998 colon and with HOP-92 NSCLC were greater than 100 µM, greater than 100 µM and 4.25 µM, respectively. Besides, the TGI with A549 NSCLC, in the assay on NCI-H522 lung, with MDA-MB-231 breast, in the assay with SK-MEL-5 melanoma, with NCI-H23 lung and with MCF7 breast was greater than 100 µM in each case. The TGI in the assay with NCI-H460 lung, in the assay with HCC-2998 colon and with HOP-92 NSCLC was greater than 100 µM in each case.

As for `CN(C)CCN1C(=O)c2cccc3c(N)ccc(c23)C1=O`, the GI50 with A549 NSCLC was 9.04 µM; with NCI-H522 lung it was 7.12 µM; in the assay on MDA-MB-231 breast, 16 µM; in the assay on SK-MEL-5 melanoma it was 9.13 µM; in the assay with NCI-H23 lung, 15 µM; in the assay with MCF7 breast, 7.59 µM. Further, the GI50 with NCI-H460 lung was 7.42 µM; in the assay with HCC-2998 colon it was 17.8 µM; with HOP-92 NSCLC, 19.4 µM. The TGI with A549 NSCLC, with NCI-H522 lung, with MDA-MB-231 breast, in the assay with SK-MEL-5 melanoma, in the assay with NCI-H23 lung and in the assay with MCF7 breast was greater than 25 µM each time. Besides, the values for the TGI with NCI-H460 lung, in the assay with HCC-2998 colon and in the assay with HOP-92 NSCLC were 23.8 µM, greater than 25 µM and greater than 25 µM, respectively.

For `COc1ccc(C2=CC(c3ccc(Oc4ccnc5cc(Cl)ccc45)c(OC)c3)c3c(nc(OC)[nH]c3=O)N2)cc1` (stereo unspecified), the GI50 with A549 NSCLC is 5.66 µM; in the assay on NCI-H522 lung it was 3.18 µM; in the assay with MDA-MB-231 breast it was 8.62 µM; with SK-MEL-5 melanoma, 7.28 µM; with NCI-H23 lung it was 9.03 µM; with MCF7 breast it was 3.56 µM. The GI50 in the assay on NCI-H460 lung is 6.51 µM; with HCC-2998 colon it was greater than 100 µM; with IGROV1 ovarian it was 26 µM. The TGI was greater than 100 µM in the assay with A549 NSCLC; 47.2 µM with NCI-H522 lung; greater than 100 µM in the assay on MDA-MB-231 breast; 34.1 µM with SK-MEL-5 melanoma; greater than 100 µM in the assay with NCI-H23 lung; greater than 100 µM in the assay with MCF7 breast. Moreover, the TGI in the assay on NCI-H460 lung, in the assay with HCC-2998 colon and in the assay on IGROV1 ovarian was greater than 100 µM each time.

In the case of `CCC(C(=O)c1cccs1)C(O)(C(F)(F)F)C(F)(F)F` (stereo unspecified), the TGI with A549 NSCLC, in the assay with NCI-H522 lung, with MDA-MB-231 breast, with SK-MEL-5 melanoma, in the assay with NCI-H23 lung and in the assay on MCF7 breast was greater than 100 µM throughout. The TGI with NCI-H460 lung, in the assay with HOP-92 NSCLC and with IGROV1 ovarian was greater than 100 µM in each case.

For `O=[N+]([O-])c1cccc(/C=C/c2ccccn2)c1`, the GI50 with A549 NSCLC is 27.9 µM; in the assay with MDA-MB-231 breast it was 23 µM; with SK-MEL-5 melanoma it was 28.7 µM; in the assay on NCI-H23 lung it was 30 µM; in the assay on MCF7 breast it was 0.569 µM; in the assay on NCI-H460 lung, 34.5 µM. Further, the GI50 is 44.9 µM in the assay on HCC-2998 colon, 24.3 µM in the assay on HOP-92 NSCLC and 28 µM in the assay with IGROV1 ovarian. In addition, the TGI with A549 NSCLC, in the assay with MDA-MB-231 breast, in the assay on SK-MEL-5 melanoma, with NCI-H23 lung, in the assay on MCF7 breast and with NCI-H460 lung was greater than 100 µM in each case. Also, the TGI with HCC-2998 colon, with HOP-92 NSCLC and with IGROV1 ovarian was greater than 100 µM each time.

With `COc1ccc2c(c1)CC[C@@H]1[C@@H]2CC[C@]2(C)c3[nH]ncc3C[C@@H]12`, the GI50 with A549 NSCLC is 15.2 µM; with NCI-H522 lung, 10.3 µM; with MDA-MB-231 breast it was 11.5 µM; in the assay on SK-MEL-5 melanoma, 8.16 µM; with MCF7 breast it was 13.4 µM; in the assay with HCC-2998 colon, 13.7 µM. The results for the GI50 in the assay with HOP-92 NSCLC and in the assay on IGROV1 ovarian were 14.4 µM and 21.9 µM, respectively. The TGI was greater than 50 µM in the assay on A549 NSCLC; 27.4 µM with NCI-H522 lung; greater than 50 µM with MDA-MB-231 breast; 16.4 µM with SK-MEL-5 melanoma; 35.7 µM in the assay on MCF7 breast; 35.3 µM in the assay on HCC-2998 colon. For the same compound, the TGI in the assay with HOP-92 NSCLC and with IGROV1 ovarian was greater than 50 µM each time.

On to `CNS(=O)(=O)c1ccccc1C(=N)c1ccccc1`, for which the TGI with A549 NSCLC, in the assay with NCI-H522 lung, in the assay on MDA-MB-231 breast, in the assay with SK-MEL-5 melanoma, with NCI-H23 lung and in the assay on MCF7 breast was greater than 100 µM throughout. The TGI in the assay with NCI-H460 lung, with HOP-92 NSCLC and with IGROV1 ovarian was greater than 100 µM in each case.
